How the values were obtained:
[1] = tested on: ECa-109 cell line; assay: Cytotoxicity against human ECa-109 cells assessed as reduction in cell viability incubated for 48 hrs by MTT assay; format: functional, cell-based; conditions: ECa-109, 48 h
[2] = tested on: L02; assay: Cytotoxicity against human HL7702 cells assessed as reduction in cell viability incubated for 48 hrs by MTT assay; format: ADME, cell-based; conditions: L02, 48 h
[3] = Selectivity index, ratio of IC50 for cytotoxicity against human HL7702 cells to IC50 for cytotoxicity against human SGC-7901 cells
[4] = tested on: SGC-7901; assay: Cytotoxicity against human SGC-7901 cells assessed as reduction in cell viability incubated for 48 hrs by MTT assay; format: functional, cell-based; conditions: SGC-7901, 48 h
[5] = tested on: HeLa; assay: Cytotoxicity against human HeLa cells assessed as reduction in cell viability incubated for 48 hrs by MTT assay; format: functional, cell-based
[6] = Selectivity index, ratio of IC50 for cytotoxicity against human HL7702 cells to IC50 for cytotoxicity against human ECa-109 cells
[7] = tested on: HepG2; assay: Cytotoxicity against human HepG2 cells assessed as reduction in cell viability incubated for 48 hrs by MTT assay; format: functional, cell-based; conditions: HepG2, 48 h

Row | SMILES | IC50 [1] [µM] | IC50 [2] [µM] | Ratio IC50 [3] | IC50 [4] [µM] | IC50 [5] [µM] | Ratio IC50 [6] | IC50 [7] [µM]
1 | COc1cccc2c1C(=O)c1c(O)c3c(c(O)c1C2=O)C[C@@](O)(C(=O)CO)C[C@@H]3O[C@H]1C[C@H](N)[C@H](O)[C@H](C)O1 [DOXORUBICIN] | 2.06 | 0.94 | 0.61 | 1.53 | 1.07 | 0.46 | 
2 | C[n+]1nn(CC(c2ccccc2)c2ccccc2)c2c1C[C@]1(C)[C@H]3CC[C@@H]4[C@H]5[C@H]6OC[C@@]5(CCC6(C)C)CC[C@@]4(C)[C@]3(C)CC[C@H]1C2(C)C | 2.28 | 1.61 |  | 2.18 | 2.67 |  | 2.96
3 | CC1(C)CC[C@]23CC[C@]4(C)[C@H](CC[C@@H]5[C@@]6(C)Cc7nnn(Cc8cccc(Cl)c8)c7C(C)(C)[C@@H]6CC[C@]54C)[C@H]2[C@H]1OC3 | 36.5 | 26.3 |  | 31.5 | 34.4 |  | 30.7
4 | COc1ccccc1CCn1nnc2c1C(C)(C)[C@@H]1CC[C@]3(C)[C@H](CC[C@@H]4[C@H]5[C@H]6OC[C@@]5(CCC6(C)C)CC[C@]43C)[C@@]1(C)C2 | 34.9 | 31.9 |  | 38.6 | 33.9 |  | 32.8
5 | CC1(C)CC[C@]23CC[C@]4(C)[C@H](CC[C@@H]5[C@@]6(C)Cc7nnn(Cc8ccc(F)cc8)c7C(C)(C)[C@@H]6CC[C@]54C)[C@H]2[C@H]1OC3 | 69 | 42 |  | > 80 | > 80 |  | 47.7
6 | Cc1ccc(Cn2nnc3c2C(C)(C)[C@@H]2CC[C@]4(C)[C@H](CC[C@@H]5[C@H]6[C@H]7OC[C@@]6(CCC7(C)C)CC[C@]54C)[C@@]2(C)C3)cc1 | 34.8 | 22.7 |  | 20.3 | 32.3 |  | 26.6
7 | C[n+]1nn(Cc2cccc(Cl)c2)c2c1C[C@]1(C)[C@H]3CC[C@@H]4[C@H]5[C@H]6OC[C@@]5(CCC6(C)C)CC[C@@]4(C)[C@]3(C)CC[C@H]1C2(C)C | 3.01 | 1.89 |  | 2.41 | 2.07 |  | 2.67
8 | COc1ccccc1CCn1n[n+](C)c2c1C(C)(C)[C@@H]1CC[C@]3(C)[C@H](CC[C@@H]4[C@H]5[C@H]6OC[C@@]5(CCC6(C)C)CC[C@]43C)[C@@]1(C)C2 | 1.67 | 1.4 |  | 1.24 | 1.67 |  | 1.55
9 | CC1(C)CC[C@]23CC[C@]4(C)[C@H](CC[C@@H]5[C@@]6(C)Cc7nnn(Cc8ccc(Cl)c(Cl)c8)c7C(C)(C)[C@@H]6CC[C@]54C)[C@H]2[C@H]1OC3 | 43.6 | 35.5 |  | 44.5 | 32.6 |  | 53.9
10 | Cc1ccc(Cn2n[n+](C)c3c2C(C)(C)[C@@H]2CC[C@]4(C)[C@H](CC[C@@H]5[C@H]6[C@H]7OC[C@@]6(CCC7(C)C)CC[C@]54C)[C@@]2(C)C3)cc1 | 2.62 | 1.47 |  | 2.16 | 2.21 |  | 2.28
11 | CC1(C)CC[C@]23CC[C@]4(C)[C@H](CC[C@@H]5[C@@]6(C)Cc7nnn(CC(c8ccccc8)c8ccccc8)c7C(C)(C)[C@@H]6CC[C@]54C)[C@H]2[C@H]1OC3 | 48.5 | 40.7 |  | 47.9 | 44.1 |  | 53.9
12 | COc1ccc(Cn2n[n+](C)c3c2C(C)(C)[C@@H]2CC[C@]4(C)[C@H](CC[C@@H]5[C@H]6[C@H]7OC[C@@]6(CCC7(C)C)CC[C@]54C)[C@@]2(C)C3)cc1 | 2.78 | 2.24 |  | 2.01 | 2.48 |  | 2.86
13 | CCCCCCCCn1n[n+](C)c2c1C(C)(C)[C@@H]1CC[C@]3(C)[C@H](CC[C@@H]4[C@H]5[C@H]6OC[C@@]5(CCC6(C)C)CC[C@]43C)[C@@]1(C)C2 | 3 | 1.34 |  | 2.18 | 2.55 |  | 2.01
14 | C[n+]1nn(Cc2ccc(F)cc2)c2c1C[C@]1(C)[C@H]3CC[C@@H]4[C@H]5[C@H]6OC[C@@]5(CCC6(C)C)CC[C@@]4(C)[C@]3(C)CC[C@H]1C2(C)C | 3.06 | 2.2 |  | 3.02 | 3.03 |  | 2.89
15 | CC1(C)CC[C@]23CC[C@]4(C)[C@H](CC[C@@H]5[C@@]6(C)Cc7nnn(Cc8ccc(C(F)(F)F)cc8)c7C(C)(C)[C@@H]6CC[C@]54C)[C@H]2[C@H]1OC3 | 33.9 | 25.6 |  | 32.2 | 28.5 |  | 28.9
16 | COc1ccccc1Cn1nnc2c1C(C)(C)[C@@H]1CC[C@]3(C)[C@H](CC[C@@H]4[C@H]5[C@H]6OC[C@@]5(CCC6(C)C)CC[C@]43C)[C@@]1(C)C2 | 57.9 | 38.4 |  | 53 | 41.9 |  | 46.7
17 | CC1(C)CC[C@]23CC[C@]4(C)[C@H](CC[C@@H]5[C@@]6(C)CC[C@H](O)C(C)(C)[C@@H]6CC[C@]54C)[C@H]2[C@H]1OC3 [ALLOBETULIN] | 47.6 | 42.7 |  | 62.4 | 45.6 |  | 55.9
18 | C[n+]1nn(Cc2cccc(F)c2)c2c1C[C@]1(C)[C@H]3CC[C@@H]4[C@H]5[C@H]6OC[C@@]5(CCC6(C)C)CC[C@@]4(C)[C@]3(C)CC[C@H]1C2(C)C | 3 | 1.41 |  | 3.05 | 2.78 |  | 2.24

From ChEMBL document CHEMBL4706545, “Antiproliferative effect of mitochondria-targeting allobetulin 1,2,3-triazolium salt derivatives and their mechanism of inducing apoptosis of cancer cells” (Eur J Med Chem, 2020)
